From EP0545991B1, “PEPTIDES THAT BLOCK HUMAN IMMUNODEFICIENCY VIRUS INFECTIONS AND METHODS OF USE THEREOF” (VAHLNE, Anders, priority 1990, dated 1992)
Like-named read-outs stand apart in the source and are kept apart here. Where a SMILES comes first, the peptide text is derived from it.

Columns and labels:
[1] = system: HTLV IIIB/H9 Denmark
Method: (§1) Table 1 lists the peptides and their amino acid sequences tested against the following virus/cell systems: • (1) HTLV-111B/H9 Denmark (obtained from Denmark, Bent Faber-Vestergard); • (2) HTLV-111B/H9 New York (obtained from Dr. William Hall, North Shore Hospital, Manhasset, N.Y.); and • (3) ELI-1/HUT (obtained from Dr. Levy, San Francisco, CA).
(§2) Virus at 100 50% tissue culture infectious doses (TCID50) and peptides at concentrations of 250 and 25 µg/ml were added to the cells simultaneously and incubated for 2 hours at 4°C with frequent stirring. Subsequently, the temperature was increased to 37°C and the mixtures were subjected to a second incubation for 2 hours. Following the second incubation, the cells were centrifuged at 325 x g and washed once in RPMI medium (Gibco Laboratories, NY). Cells, at a concentration of 5 x 10^5/ml, were then added to 24 multidish well plates at a final volume of 1.5 ml of growth medium (RPMI supplemented with 10% fetal calf serum (FCS), antibiotics and polybrene (2 µg/ml)), with the addition of peptides at dilutions of 250 or 25 µg/ml. […] As additional controls, two HIV infected cell cultures (designated pos. controls 1 and 2, Tables 3-5) and two uninfected cell cultures (designated neg. controls 1 and 2) were used.
(§3) Infected cells were continuously monitored for formation of syncytia and the growth medium supernatants were analyzed at days 9-12 p.i. for p24 antigen which is an indicator of HIV replication.
(§4) Briefly, the following protocol was used for detection of the p24 antigen. HIV p24 antigen was determined using a rabbit anti-p24 polyclonal antiserum as capture antibody and a biotinylated rabbit anti-p24 polyclonal antibody was used as detecting antibody in an avidin-horse radish peroxidase (HRP) ELISA. The sensitivity of the assay allowed detection of approximately 50 pg of p24 antigen per ml supernatant. […] Serial dilutions of the supernatants were made so as to detect p24 concentration in the most accurate range (< 2.0 absorbance units).
(§5) At the end of the experiment, the cells were collected and fixed on slides with acetone according to standard procedures as described in Jeansson et al., Exp. Cell Res., 161:181-188 (1985). The number of infected cells were then determined by indirect immunofluorescence using a human HIV positive serum diluted 1/100 and FITC conjugated antihuman IgG (Bio Merieux, France) diluted 1/200.
(§6) In tables 3-6, the p24 content of the supernatants of infected cells was determined by diluting the supernatants of infected cells in serial tenfold dilutions (1/10, 1/100, 1/1000 and 1/10,000) and analyzing in ELISA as described above. Results are indicated by the absorbance values (454nm) of respective dilutions.

[2] = system: ELI1/HUT
Method: as §1, §2, §3, §4, §5, §6

[3] = system: HTLV-IIIB replication in H9 cells; test: Dose response and combination experiments, p24 ELISA; assay type: cell-based, HIV; conditions: Human immunodeficiency virus 1, IIIB, H9, read-out: approximate ID50 (p24 antigen reduced by 50%), supernatants diluted 1/5
Method: The results in Tables 10 and 11 were obtained as described in Example 2. The supernatants were tested for p24 on day 8 p.i. Supernatants were serially diluted (1/5, 1/50 and 1/500) and analyzed by ELISA as described in Example 2.

[4] = system: HTLV IIIB/H9 N.Y.
Method: as §1, §2, §3, §4, §5, §6
The peptides in their carboxy and amido forms were obtained from Bachem Feinchemikalien AG (Switzerland, GPG-NH2 Bachem, GPG-COOH, Bachem, PG-NH2 Bachem and PG-COOH Bachem) and Syntello (Sweden, GPG-NH2 Syntello). The effectiveness of the peptides was determined by both p24 production and syncytia formation as described in Example 2.
In tables 8 and 9, the p24 content of the supernatants of infected cells was determined by diluting the supernatants in serial tenfold dilutions (1/10, 1/100, 1/1,000) and analyzing by ELISA as described in Example 2. Results are indicated by the absorbance values (454 nm) of respective dilutions.

[5] = system: herpes simplex virus type I (HSV-1) strain McIntyre; test: Yield inhibition assay of HSV-1 in GMK cells; assay type: cell-based
Method: To determine the specificity and toxicity of the peptides, Tyr-Arg-Gly-Pro-Gly, Gly-Pro-Gly and Arg-Gly-Pro-Gly were tested in (1) a plaque reduction assay and (2) a yield inhibition assay of herpes simplex virus type I (HSV-1) strain McIntyre.
The yield inhibition assay was performed as follows: HSV-1 was inoculated at a multiplicity of 0.5 pfu per GMK cell in the presence of the respective peptide at concentrations of 250 and 25 µg/ml. Virus adsorption was performed for 60 min. at room temperature. The cells were then rinsed five times with Hanks' Balanced Salt Solution (BSS) and incubated in a 5% CO2 atmosphere at 37°C with maintenance medium containing either peptides or acyclovir, according to the methods described in "Proceedings of a Symposium on Acyclovir", The American Journal of Medicine, July 20, (1982) which is incorporated herein by reference, or without any additives. Twenty-four hours p.i. the cells were freeze-thawed, scraped into the medium and tested for virus yield by the infectivity assay as outlined in Example 2. The results are shown in Table 7 where the plaque reduction values are the mean of two cultures and the yield of HSV-1 after 24 hours is the mean of two determinations and the values are presented in millions of pfu/ml.

[6] = system: peripheral blood mononuclear cells; test: Viability of mononuclear cells, flow cytometry after propidium iodide; assay type: cell-based, human
Method: The possibility that Gly-Pro-Gly may affect the viability and/or function of normal human circulating lymphomonocytic cells was examined by adding Gly-Pro-Gly to unfractionated and T cell enriched (CD2^+ = nominal T cells; CD4^+ = putative helper/inducer T cell subset; CD8+ = putative cytotoxic/suppressor T cell subset) peripheral blood mononuclear cell suspensions from healthy normal blood donors.
Thus, the viability of peripheral blood mononuclear cells exposed to Gly-Pro-Gly (2 mM, 4 days) was 99.67% and that of corresponding unexposed cells was 99.66% (mean of 4 experiments).

[7] = In vivo toxicity, growth of mice after intraperitoneal injections; conditions: intraperitoneal injections starting at an age of 6 days; compared with controls
Excerpt: In an in vivo test of the toxicity of Gly-Pro-Gly, groups of mice were given intraperitoneal injections of the substance starting at an age of 6 days. Figure 3 also graphically depicts the results. […] The peptides are thus non-toxic even when given in large doses.

[8] = system: HIV; assay type: cell-based
Method: Virus at 100 50% tissue culture infectious doses (TCID50) and peptides at concentrations of 250 and 25 µg/ml were added to the cells simultaneously and incubated for 2 hours at 4°C with frequent stirring. Subsequently, the temperature was increased to 37°C and the mixtures were subjected to a second incubation for 2 hours. […] Cells, at a concentration of 5 x 10^5/ml, were then added to 24 multidish well plates at a final volume of 1.5 ml of growth medium (RPMI supplemented with 10% fetal calf serum (FCS), antibiotics and polybrene (2 µg/ml)), with the addition of peptides at dilutions of 250 or 25 µg/ml. […]
as §3
as §4, with “ELISA.” for “ELISA. The sensitivity of the assay allowed detection of approximately 50 pg of p24 antigen per ml supernatant.”, “units). […]” for “units).”

[9] = system: ELI1/HUT; test: Infectivity assay (p24 ELISA, indirect immunofluorescence), ELI-1/HUT; assay type: cell-based, HIV
[10] = system: HTLV IIIB/H9 N.Y.; test: Infectivity assay (p24 ELISA, syncytia formation, indirect immunofluorescence), HTLV-IIIB/H9 New York; assay type: cell-based, HIV

Cc1cn([C@H]2C[C@H](N=[N+]=[N-])[C@@H](CO)O2)c(=O)[nH]c1=O [AZT, azidothymidine]
# OF SYNCYTIA/WELL Day 9 ([1]; 0.2 µM): 16
% OF POS CELLS ([1]; 0.2 µM): 5-10%
# OF SYNCYTIA/WELL Day 9 ([1]; 2 µM): 10
% OF POS CELLS ([1]; 2 µM): 5-8%
# OF SYNCYTIA/WELL Day 9 ([1]; 20 µM): 0
% OF POS CELLS ([1]; 20 µM): 0.1-1%
PERCENTAGE OF POS CELLS ([2]; 0.2 µM): 10
PERCENTAGE OF POS CELLS ([2]; 2 µM): 10
PERCENTAGE OF POS CELLS ([2]; 20 µM): 10-15
IC50 ([3]; day 8 postinfection): ~400 nM
IC50 ([3]; twelve days after infection): ~3200 nM
# OF SYNCYTIA/WELL Day 9 ([4]; 0.2 µM): 22
# OF SYNCYTIA/WELL Day 14 ([4]; 0.2 µM): >100
% OF POS CELLS ([4]; 0.2 µM): 10%
# OF SYNCYTIA/WELL Day 14 ([4]; 0.2 µM, Table 6): 29
PERCENTAGE OF AG POS CELLS ([4]; 0.2 µM, Table 6): 30
# OF SYNCYTIA/WELL Day 9 ([4]; 2 µM): 11
# OF SYNCYTIA/WELL Day 14 ([4]; 2 µM): >100
% OF POS CELLS ([4]; 2 µM): 10-15%
# OF SYNCYTIA/WELL Day 14 ([4]; 2 µM, Table 6): 4
PERCENTAGE OF AG POS CELLS ([4]; 2 µM, Table 6): 0.5-2
# OF SYNCYTIA/WELL Day 9 ([4]; 20 µM): 0
# OF SYNCYTIA/WELL Day 14 ([4]; 20 µM): 11
% OF POS CELLS ([4]; 20 µM): 0-1%
# OF SYNCYTIA/WELL Day 14 ([4]; 20 µM, Table 6): 0

Nc1nc2c(ncn2COCCO)c(=O)[nH]1 [Acyclovir, acyclovir]
yields of HSV-1 ([5]; 2 µM): significantly reduced
YIELD OF HSV AFTER 24 HOURS ([5]; 2 µM, mean of two determinations): 0.9 millions of pfu/ml
activity at 2 µM ([5]; Human alphaherpesvirus 1, GMK, 24 h, read-out: YIELD OF HSV AFTER 24 HOURS PERCENT OF CONTROL): 3%

NCC(=O)N1CCC[C@H]1C(=O)NCC(N)=O [GPG, Gly-Pro-Gly-NH2] (H-Gly-Pro-Gly-NH2)
viability of peripheral blood mononuclear cells ([6]; 2 mM, 4 days, mean of 4 experiments, unexposed cells 99.66%): 99.67%
effect on viability of cultured monocytes and lymphocytes ([6]; doses as high as 2 mM, exposure as long as 4 days): did not appreciably affect the viability
influence on the growth of mice [7]: no significant influence

Arg-Gly-Pro-Gly-Arg (RGPGR; printed: Arg-Gly-Pro-Gly-Arg)
infection of treated cells by p24 synthesis and syncytia formation ([8]; Tables 3-5): became infected
prevention of HIV infection by p24 levels and syncytia formation ([8]; Tables 3 to 6): did not prevent HIV infection
PERCENTAGE OF POS CELLS ([9]; 25 µg/ml): 10-15
p24 1/10 ([9]; 25 µg/ml): 3 absorbance (454 nm)
p24 1/100 ([9]; 25 µg/ml): 2.296 absorbance (454 nm)
p24 1/1,000 ([9]; 25 µg/ml): 0.745 absorbance (454 nm)
p24 1/10,000 ([9]; 25 µg/ml): 0.263 absorbance (454 nm)
PERCENTAGE OF POS CELLS ([9]; 250 µg/ml): 10-15
p24 1/10 ([9]; 250 µg/ml): 3 absorbance (454 nm)
p24 1/100 ([9]; 250 µg/ml): 1.999 absorbance (454 nm)
p24 1/1,000 ([9]; 250 µg/ml): 0.788 absorbance (454 nm)
p24 1/10,000 ([9]; 250 µg/ml): 0.339 absorbance (454 nm)
# OF SYNCYTIA/WELL Day 9 ([10]; 25 µg/ml): 14
# OF SYNCYTIA/WELL Day 14 ([10]; 25 µg/ml): >100
% OF POS CELLS ([10]; 25 µg/ml): 5-10%
p24 1/10 ([10]; 25 µg/ml): 2.16 absorbance (454 nm)
p24 1/100 ([10]; 25 µg/ml): 0.853 absorbance (454 nm)
p24 1/1,000 ([10]; 25 µg/ml): 0.268 absorbance (454 nm)
p24 1/10,000 ([10]; 25 µg/ml): 0.145 absorbance (454 nm)
# OF SYNCYTIA/WELL Day 9 ([10]; 250 µg/ml): 14
# OF SYNCYTIA/WELL Day 14 ([10]; 250 µg/ml): >100
% OF POS CELLS ([10]; 250 µg/ml): 10%
p24 1/10 ([10]; 250 µg/ml): 2.116 absorbance (454 nm)
p24 1/100 ([10]; 250 µg/ml): 0.974 absorbance (454 nm)
p24 1/1,000 ([10]; 250 µg/ml): 0.334 absorbance (454 nm)
p24 1/10,000 ([10]; 250 µg/ml): 0.15 absorbance (454 nm)
